This passage reports EC50, IC50 and outcome results from PubChem BioAssay AID179 (DTP/NCI, 2004).

Structures are written as SMILES. The source made the active and inactive calls.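 Rule for the calls: active = compounds giving half or more protection of infected cells from virus-caused growth loss, again on retest; inactive = the rest.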 Where a SMILES comes first, the peptide text is derived from it. [ ]: non-standard residue; d: D form. The star is where a group is joined. Ac5c = NC1(C(=O)O)CCCC1; Boc = CC(C)(C)OC(=O)*; tBu = CC(C)(C)*

The test system of this assay is CEM cells HIV-1 protection, formazan growth assay. The experiment in a line: NCI AIDS Antiviral Assay. The conditions noted are these: for IC50: measured here: growth of uninfected CEM cells. A digest of the protocol: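 Five concentrations of each compound were applied to infected and uninfected human CEM cells. Protection from HIV-1 was judged from growth measured with a soluble formazan assay.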

By EC50 is commonly meant the midpoint of the concentration-response curve. In general, IC50 refers to the point on the concentration scale where inhibition reaches its midpoint. Low values mean inhibition by little substance, high ones a need for much substance. For `Cc1nc2ccc(Br)cc2c(=O)n1-c1ccc(N)cc1`, the EC50 is greater than 200 µM and the IC50 is greater than 200 µM. With `CCOC(=O)c1cc2c(nc1N)C(=O)CCC2`, the EC50 was greater than 200 µM and the half-inhibitory concentration (IC50) was 112 µM.

As to `COc1ccc(-c2c(-c3ccccc3)c(C)nc3[nH]c(=S)[nH]c(=S)c23)cc1OC`, the EC50 was greater than 200 µM and the IC50 stood at 43.7 µM. In the same order, the values of `CC1(C)C(=O)C2(OS(=O)(=O)C(F)(F)F)CCC1C2` (centres undefined) are greater than 200 µM and greater than 200 µM. Regarding `C=C1C(=O)O[C@H]2C1C[C@H](O)[C@@]1(C)OC1CC[C@@]1(C)O[C@H]21` (some centres undefined), the EC50 was greater than 200 µM and the IC50 is 6.61 µM. Turning to `Cc1cccc(C)c1NC(=O)CCCC(=O)CC(=O)/C=C/c1ccccc1`, the EC50 is greater than 501 µM and the IC50 is greater than 501 µM. Consider `COc1cc2c(cc1C)C1=C(C)C(=O)OC1[C@@H](O)[C@@H]2C` (some centres undefined), for which the EC50 was greater than 661 µM and the IC50 was 245 µM. As for `CC(=O)NCCSSCCCCS(=O)O`, the EC50 was greater than 200 µM and the IC50 came to 3.16 µM.

With `O=c1cc(NNc2cccc(F)c2)[nH]c(=O)[nH]1`, the EC50 is greater than 200 µM and the half-maximal inhibitory concentration (IC50) came to 1.1 µM. Take `O=[N+]([O-])c1ccc(C2=NOC(c3ccccc3F)N2C23CC4CC(CC(C4)C2)C3)cc1` (centres undefined): the EC50 is 195 µM and the IC50 is greater than 200 µM. On to `CC(OC(C)(C)C)C(NC(=O)C(CCCCNC(=O)OC(C)(C)C)NC(=O)C(Cc1c[nH]c2ccccc12)NC(=O)C(N)Cc1ccccc1)C(=O)NC(Cc1ccccc1)C(=O)NC1(C(=O)O)CCCC1` (centres undefined) (H-FWK(Boc)T(tBu)F[Ac5c]-OH; configuration not given here), for which the EC50 is 97.7 µM and the IC50 is greater than 100 µM. For the molecule `N=S(=O)(c1ccccc1)c1ccccc1`, the result was inactive. For the molecule `CCOC(=O)N1CCC2(CC1)C[C@](C)(C(C)=O)C(C)O2` (some centres undefined), the EC50 is greater than 200 µM and the IC50 is greater than 200 µM. In the case of `Cc1cc2c(c3oc(=O)cc(C)c13)[C@@H](OC(=O)C13CCC(C)(C(=O)O1)C3(C)C)[C@@H](OC(=O)C13CCC(C)(C(=O)O1)C3(C)C)C(C)(C)O2` (some centres undefined), the EC50 is 0.912 µM and the IC50 was greater than 200 µM. Regarding `COc1ccccc1N1CCN(S(=O)(=O)c2ccc(Cl)cc2)C1=N`, the EC50 is greater than 200 µM and the 50% inhibitory concentration (IC50) is 77.6 µM. As for `COC1/C=C\OC2(C)Oc3c(C)c(O)c4c(O)c(c(/C=N\NC(=O)CC(=O)N/N=C/c5c6c(O)c7c(O)c(C)c8c(c7c5O)C(=O)C(C)(O/C=C/C(OC)C(C)C(OC(C)=O)C(C)C(O)C(C)C(O)C(C)/C=C/C=C(C)C(=O)N6)O8)c(O)c4c3C2=O)NC(=O)/C(C)=C\C=C/C(C)C(O)C(C)C(O)C(C)C(OC(C)=O)C1C` (centres undefined), the EC50 is greater than 115 µM and the IC50 was 87.1 µM.

Turning to `O=C(CC1(O)C(=O)Nc2ccc(Br)cc21)c1ccc2c(c1)OCO2` (centres undefined), the EC50 is greater than 200 µM and the IC50 came to 178 µM. In the same order, the values of `CCN(CCNc1ccc(C)c2sc3ccccc3c(=O)c12)CC(C)(C)O` are greater than 200 µM and 7.94 µM. On the same counts, the results for `Brc1cscc1Cc1cscc1Br` are greater than 200 µM and 74.1 µM. As to `O=S(=O)(F)c1ccc(C[P+](c2ccccc2)(c2ccccc2)c2ccccc2)cc1`, the EC50 was greater than 200 µM and the IC50 is greater than 100 µM. `Nc1c(Cl)cc(Cl)cc1C(=O)O`: the EC50 was greater than 200 µM and the IC50 came to 195 µM. Turning to `COc1ccc(OC)c2cc(Cc3ccc(N(C)C)cc3)c(=O)c(Cc3ccc(N(C)C)cc3)cc12`, the EC50 is greater than 200 µM and the IC50 was found to be 43.7 µM. Turning to `CCc1cc2c(oc3cc4ccccc4cc32)c(=O)[nH]1`, the EC50 was greater than 200 µM and the IC50 is greater than 200 µM.

As to `O=C1NC(=O)/C(=C/c2ccc(S(=O)(=O)N/N=C/c3ccc(Cl)cc3)cc2)N1`, the EC50 is greater than 200 µM and the IC50 came out at 123 µM. In the same order, the values of `C=CCC(C(=O)OC)C1(C(=O)OC)c2[nH]c3ccccc3c2CCN1Cc1ccccc1` (centres undefined) are greater than 39.8 µM and greater than 39.8 µM.
